Reference: US20240407385A1, “HIGH PURITY PHYLLODULCIN EXTRACT” (SYMRISE AG, priority 2021, published 2024)

Test: Sensory evaluation of sweetness compared with pure (R)-phyllodulcin (Example 4)
Type: in vivo
Conditions: dose 5 mg/kg; panel n=20
Protocol: Two samples (samples 1 and 2) were prepared by a method according to the invention. Particularly, the leaf material was extracted two times with ethyl acetate (in an amount of 5 times of the weight of the leaf material) and wherein the precipitation was performed with ethanol at 10° C. Furthermore, the solid was washed with ethanol (in an amount of 3 times of the weight of the solid) at 5° C.
Sample 3 was extracted from leaf material, however, no precipitation was performed.
The samples were then compared with the pure substance (R)-phyllodulcin with regard to their sensory evaluation.

Q: Which Sweetness does the source give for `COc1ccc([C@H]2Cc3cccc(O)c3C(=O)O2)cc1O` [(R)-phyllodulcin, (3R)-8-Hydroxy-3-(3-hydroxy-4-methoxyphenyl)-3,4-dihydro-1 H-isochromen-1-one] here?
A: 27.0%
